Assay results published in US7375083B2, “Pharmaceutical compositions for prevention of overdose or abuse” (Shire LLC, priority 2003, dated 2008).

Target: T1, human recombinant dopamine transport binding sites (Homo sapiens, UniProt Q01959)
T1 construct: purchased Novascreen, Hanover, Md
Experiment: Radioligand binding, dopamine transporter
Conditions: 10^−9 to 10^−5 M

T1 sequence (Q01959 whole entry): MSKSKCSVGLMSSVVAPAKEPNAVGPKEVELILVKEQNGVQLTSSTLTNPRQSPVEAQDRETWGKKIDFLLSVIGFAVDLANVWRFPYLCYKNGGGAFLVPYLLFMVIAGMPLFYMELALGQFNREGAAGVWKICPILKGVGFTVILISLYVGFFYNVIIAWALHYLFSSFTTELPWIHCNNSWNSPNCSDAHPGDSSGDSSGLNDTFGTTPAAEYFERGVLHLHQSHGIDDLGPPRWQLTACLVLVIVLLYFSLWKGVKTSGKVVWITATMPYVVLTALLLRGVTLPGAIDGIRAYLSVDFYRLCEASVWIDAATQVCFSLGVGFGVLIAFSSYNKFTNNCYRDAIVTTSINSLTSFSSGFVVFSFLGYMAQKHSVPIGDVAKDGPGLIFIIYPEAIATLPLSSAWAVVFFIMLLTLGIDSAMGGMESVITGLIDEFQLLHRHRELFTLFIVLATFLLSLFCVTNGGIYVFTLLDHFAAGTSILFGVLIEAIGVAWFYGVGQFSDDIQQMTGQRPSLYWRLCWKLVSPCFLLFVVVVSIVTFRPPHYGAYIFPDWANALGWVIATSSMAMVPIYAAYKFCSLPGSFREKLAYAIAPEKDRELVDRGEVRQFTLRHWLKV

With `CC(Cc1ccccc1)NC(=O)C(N)CCCCN` [L-lysine-d-amphetamine, 2,6-diaminohexanoic acid-(1-methyl-2-phenylethyl)-amide] the Specific binding was “did not bind”.
